The values below come from patent publication US20240165196A1, “Beta-Lactamase Inhibitors” (VIB VZW, priority 2021, published 2024).

In series [1] the test system is E. coli strain UZ_TEM104. It counts as cell-based.
Series [2] has as its system E. coli strain UZ_TEM104. It counts as cell-based. Conditions: peptide alone. The text has this: In order to generate a synthetic amyloid peptide capable of inactivating the TEM-1 beta-lactamase enzyme by capitalizing on its aggregation propensity, we applied a previously developed design pattern for synthetic aggregating sequences. This involves a tandem repeat of the APR, each instance flanked by charged amino acids for solubility and separated by a short peptide linker^19,20,23 (FIG. 2G). Previous work has shown that good bacterial uptake can be achieved using one positively charged arginine residue on the N-terminal side of each APR in the tandem and two arginine residues on the C-terminal side. This has the additional benefit of reducing the self-aggregation of the peptides and increasing their solubility prior to target engagement. As before, we employed a single Pro residue as a linker between the APRs and focused on an APR length of seven, extending shorter APRs to this length by incorporating flanking amino acids unless they were obvious aggregation breakers (Arg, Lys, Asp, Glu or Pro, see Table 1). We obtained these peptides from solid phase synthesis, followed by HPLC purification to a purity judged by reverse phase chromatography of at least 90% (Genscript).
Determination of MIC values using the broth microdilution in the 96-well plate (BD Biosciences, Belgium) according to the EUCAST guideline, which was performed in 96-well polystyrene flat bottom microtiter plates (BD Biosciences). Briefly, a single colony was inoculated into 5 mL Difco™ Mueller Hinton Broth (BD Biosciences Ref 275730) and grown to the end-exponential growth phase in a shaking incubator at 37° C. Cultures were subsequently diluted to an MacFarland (0.5 optical density) then the culture was diluted to reach 10^6 CFU/mL in fresh MHB medium. 50 μl of different concentration of peptides ranging from 128 to 2 μg/mL were serially diluted to the sterile 96-well plate in MHB. 50 μL of the diluted bacteria in MHB were pipetted into 96-well plates to reach the final volume of 100 μL. The bacteria grown with the maximum concentration of carrier and medium were considered as positive and negative controls, respectively. The plates were statically incubated overnight at 37° C. to allow bacterial growth. OD was measured at 590 nm a multipurpose ultraviolet-visible plate reader, and the absorbance of the growth bacteria was measured using absorbance reader. Bacterial growth was also visually inspected and agreed well with the OD reading.

The test system of series [3] is E. coli strains carrying NDMs. The series can be described thus: checkerboard assay (FICI), TEM3.2 and penicillin. The class given is cell-based. Conditions: strains containing NDMs; significant spread. An excerpt:
FIGS. 4A-4K. […] IV—Intravenous, IP—Intraperitoneal, SC—Subcutaneously. The data shown is from a single experiment with 4 animals per group. […] (ns—non significant, #—P>0.05, *—P≤0.05, ***—P≤0.01, ****—P≤0.001). (FIG. 4G) FICI plot as in FIG. 2, for the E. coli strains indicated and the combination of penicillin and the TEM3.2 peptide. […] (FIG. 4J) Same as FIG. 4H for peptide BGAL. (FIG. 4K) Same as FIG. 4H for peptide P33.
As we wondered about the generality of our peptide design approach, we set out to design a peptide to inactivate a structurally unrelated beta-lactamase. […] This enzyme was first isolated from a patient in 200850, by 2010 could be detected in clinical isolates throughout the UK and India^51 and by 2015 was detected in over 70 countries worldwide^52.
For the analysis of the synergy between the peptides with other antibiotics, a checkerboard assay was performed. […] FICI is calculated as the sum of the individual fractional inhibitory concentrations (FICs) for each drug (where MIC A and MIC B denote the MIC of each drug alone, and MIC AA+B and MIC BA+B denote the concentrations of A and B in the drug combination). […]

Series [4] can be described thus: peptide solubility and self-aggregation (DLS, Thioflavin T, electron microscopy, pFTAA). The text has this: Three replicates are shown for each condition. […] A single representative image is shown. […] Three replicates are shown for each condition. […] A single representative image is shown. […] A single representative image is shown. […] A single representative image is shown.
A DynaPro DLS plate reader instrument (Wyatt, Santa Barbara, CA, USA) equipped with an 830 nm laser source was used to determine the hydrodynamic radius (RH) of the peptide particles. Two hundred microliters of each sample (at 100 or 10 μM, unless stated otherwise) were placed into a flat-bottom 96-well microclear plate (Greiner, Frickenhausen, Germany). The autocorrelation of scattered light intensity at a 32° angle was recorded for 5 s and averaged over 20 recordings to obtain a single data point. The Wyatt Dynamics v7.1 software was used to calculate the hydrodynamic radius by assuming […] particles. The amyloid-specific dye Thioflavin-T (Th-T, Sigma-Aldrich, CAS number 2390-54-7) was used to study the aggregation state of peptides.

For series [5] the following is noted: mouse, in vivo, iv, 5 mg/kg. How it is done: Vehicle alone (0.9% NaCl) was also administered (IV).

Consider Ac-RLTAFLHNRRPRLTAFLHNRR-NH2 [TEM3.0], for which, in series [1] (additive at fixed 50 μg/mL), the “reduction of the MIC of penicillin G” value stood at 8 fold. In addition, the MIC penicillin in series [1] (in presence of additive at 50 μg/mL) was found to be 200 µg/mL. Further, in series [2], the MIC peptide was greater than 100 µg/mL.
On to Ac-RLTAFLHNRRPRLTAFLRQRR-NH2 [TEM3.2], for which the “synergy with penicillin (FICI)” value in series [3] is on record as “little or no synergy”. For the same substance, in series [4] (50 μM peptide in buffer alone (50 mM Tris pH 8.5, 300 mM NaCl)), the “solubility by Dynamic Light Scattering” value was “soluble in vitro”. In addition, the “aggregation of the peptide in presence of polyphosphate (ThT binding, electron microscopy)” value in series [4] (50 μM peptide, buffer with polyP) is reported as “amyloid-like aggregation”. The hematologic analysis result in series [5] was “no major discrepancies to vehicle treated controls”.
